In patent US8436012B2, “Imidazopyridin-2-one derivatives” (Daiichi Sankyo Company, Limited, priority 2008, dated 2013):

Assays:
human mTOR = biological target: T1, human mTOR (Homo sapiens, UniProt P42345); experiment: mTOR Kinase Activity Inhibition Test; type: biochemical; settings: His-tagged mTOR (1362C), biotinylated peptide substrate, ATP, 3 hours at room temperature, fluorescence resonance energy transfer 665 nm/620 nm; read-out: IC50 value of mTOR enzyme inhibitory activity
T1 construct: the portion corresponding to 1362-2549aa at the C terminus of human mTOR; made in house
In short: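 Purified His-tagged human mTOR (1362–2549aa, from HEK293) was used with biotinylated peptide (8 μg/mL in enzyme solution) in HEPES pH 7.5 with 20 mM MnCl2. Compounds were diluted in 20 μM ATP solution, and the reaction ran 3 h at RT. Phospho-S6K(Thr389) HTRF was read as the 665/620 nm ratio, and IC50 came from % inhibition versus controls.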

WM-266-4 cells = experiment: Cell Proliferation Inhibitory Test; type: cell-based; settings: Homo sapiens, 72 h, cultured three days with test compound, MTT, read-out: 50% cell proliferation inhibitory activity (GI50 value)
In short: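 Cells cultured overnight, then exposed to serially diluted compound for three days; cell amount read by MTT. GI50 solved from 100×[(T−T0)/(C−T0)]=50, with T0 the value at time of compound addition and C the untreated three-day control.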

T1 sequence (P42345 1362-2549): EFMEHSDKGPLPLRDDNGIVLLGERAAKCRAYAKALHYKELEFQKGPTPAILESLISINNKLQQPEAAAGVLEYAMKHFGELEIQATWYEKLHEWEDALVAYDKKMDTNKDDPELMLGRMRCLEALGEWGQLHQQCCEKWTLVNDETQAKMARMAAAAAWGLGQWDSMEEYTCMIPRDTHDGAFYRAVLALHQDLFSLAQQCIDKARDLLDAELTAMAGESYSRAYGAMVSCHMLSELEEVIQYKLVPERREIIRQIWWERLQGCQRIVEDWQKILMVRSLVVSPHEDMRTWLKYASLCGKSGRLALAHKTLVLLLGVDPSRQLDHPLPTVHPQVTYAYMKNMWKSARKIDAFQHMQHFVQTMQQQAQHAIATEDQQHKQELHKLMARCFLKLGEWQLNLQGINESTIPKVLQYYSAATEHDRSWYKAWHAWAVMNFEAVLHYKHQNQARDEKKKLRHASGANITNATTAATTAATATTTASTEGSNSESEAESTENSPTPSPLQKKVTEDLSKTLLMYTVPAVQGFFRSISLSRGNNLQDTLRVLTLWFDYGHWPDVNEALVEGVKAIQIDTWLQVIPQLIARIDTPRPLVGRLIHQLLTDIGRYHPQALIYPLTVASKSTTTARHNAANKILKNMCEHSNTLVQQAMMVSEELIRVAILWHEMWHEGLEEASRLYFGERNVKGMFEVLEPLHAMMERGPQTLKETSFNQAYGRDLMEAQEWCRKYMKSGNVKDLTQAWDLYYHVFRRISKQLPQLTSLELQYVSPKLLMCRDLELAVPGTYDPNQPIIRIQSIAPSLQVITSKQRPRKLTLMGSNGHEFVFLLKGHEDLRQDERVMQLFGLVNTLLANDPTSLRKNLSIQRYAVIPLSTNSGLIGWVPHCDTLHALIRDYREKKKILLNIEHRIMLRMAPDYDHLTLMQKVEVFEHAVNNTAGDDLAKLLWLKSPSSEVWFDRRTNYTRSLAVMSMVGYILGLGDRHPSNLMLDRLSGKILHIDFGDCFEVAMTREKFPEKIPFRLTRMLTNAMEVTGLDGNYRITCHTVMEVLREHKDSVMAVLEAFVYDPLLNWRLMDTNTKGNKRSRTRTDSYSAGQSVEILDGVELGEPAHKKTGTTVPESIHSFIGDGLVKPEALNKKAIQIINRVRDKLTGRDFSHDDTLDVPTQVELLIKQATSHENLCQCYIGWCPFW

Row | Compound | IC50 (human mTOR) | GI50 (WM-266-4 cells)
1 | Cc1nc2[nH]c(=O)n(C[C@H]3COCCO3)c2cc1-c1cnc2[nH]cc(C)c2c1 [Example 47, 1-[(2S)-1,4-Dioxan-2-ylmethyl]-5-methyl-6-(3-methyl-1H-pyrrolo[2,3-b]pyridin-5-yl)-1,3-dihydro-imidazo[4,5-b]pyridin-2-one] | < 0.05 µM | < 3 µM
2 | O=c1[nH]c2ncc(-c3cnc4[nH]ccc4c3)cc2n1CCC1=CCOCC1 [Example 48, 1-[2-(3,6-Dihydro-2H-pyran-4-yl)ethyl]-6-(1H-pyrrolo[2,3-b]pyridin-5-yl)-1,3-dihydro-2H-imidazo[4,5-b]pyridin-2-one] | < 0.05 µM | < 3 µM
3 | O=c1[nH]c2ncc(-c3ccc4[nH]ccc4c3)cc2n1CCC1=CCOCC1 [Example 49, 1-[2-(3,6-Dihydro-2H-pyran-4-yl)ethyl]-6-(1H-indol-5-yl)-1,3-dihydro-2H-imidazo[4,5-b]pyridin-2-one] | < 0.05 µM | < 3 µM
4 | CC(Cn1c(=O)[nH]c2ncc(-c3cnc4[nH]ccc4c3)cc21)C1CCOCC1 (stereo not drawn) [Example 50, 6-(1H-Pyrrolo[2,3-b]pyridin-5-yl)-1-[2-(tetrahydro-2H-pyran-4-yl)propyl]-1,3-dihydro-2H-imidazo[4,5-b]pyridin-2-one] | < 0.05 µM | < 3 µM
5 | O=c1[nH]c2ncc(-c3cnc4[nH]ccc4c3)cc2n1CC(F)C1CCOCC1 (stereo not drawn) [Example 51, 1-[2-Fluoro-2-(tetrahydro-2H-pyran-4-yl)ethyl]-6-(1H-pyrrolo[2,3-b]pyridin-5-yl)-1,3-dihydro-2H-imidazo[4,5-b]pyridin-2-one] | < 0.05 µM | < 3 µM
6 | C[C@@H]1CN(CCn2c(=O)[nH]c3ncc(-c4ccc5[nH]ccc5c4)cc32)C[C@H](C)O1 [Example 52, 1-{2-[cis-2,6-Dimethylmorpholin-4-yl]ethyl}-6-(1H-indol-5-yl)-1,3-dihydro-2H-imidazo[4,5-b]pyridin-2-one] | < 0.05 µM | < 3 µM
7 | C[C@@H]1CN(CCn2c(=O)[nH]c3ncc(-c4cnc5[nH]ccc5c4)cc32)C[C@H](C)O1 [Example 53, 1-{2-[cis-2,6-Dimethylmorpholin-4-yl]ethyl}-6-(1H-pyrrolo[2,3-b]pyridin-5-yl)-1,3-dihydro-2H-imidazo[4,5-b]pyridin-2-one] | < 0.05 µM | < 3 µM
8 | C[C@H]1COCCN1CCn1c(=O)[nH]c2ncc(-c3cnc4[nH]ccc4c3)cc21 [Example 54, 1-{2-[(35)-3-Methylmorpholin-4-yl]ethyl}-6-(1H-pyrrolo[2,3-b]pyridin-5-yl)-1,3-dihydro-2H-imidazo[4,5-b]pyridin-2-one] | < 0.05 µM | < 3 µM
9 | O=c1[nH]c2ncc(-c3cnc4[nH]ccc4c3)cc2n1CCN1CCOCC1 [Example 55, 1-(2-Morpholin-4-ylethyl)-6-(1H-pyrrolo[2,3-b]pyridin-5-yl)-1,3-dihydro-2H-imidazo[4,5-b]pyridin-2-one] | < 0.05 µM | < 3 µM
10 | CN1CCC(Cn2c(=O)[nH]c3ncc(-c4cnc5[nH]ccc5c4)cc32)CC1 [Example 56, 1-[(1-Methylpiperidin-4-yl)methyl]-6-(1H-pyrrolo[2,3-b]pyridin-5-yl)-1,3-dihydro-2H-imidazo[4,5-b]pyridin-2-one] | 0.1 to 5 µM | 3 to 25 µM
11 | O=c1[nH]c2ncc(-c3cnc4[nH]ccc4c3)cc2n1CCN1CCNCC1 [Example 57, 1-[2-piperazin-1-ylethyl]-6-(1H-pyrrolo[2,3-b]pyridin-5-yl)-1,3-dihydro-2H-imidazo[4,5-b]pyridin-2-one] | 0.05 to 0.1 µM | 3 to 25 µM
12 | CN1CCN(CCn2c(=O)[nH]c3ncc(-c4cnc5[nH]ccc5c4)cc32)CC1 [Example 58, 1-[2-(4-Methylpiperazin-1-yl)ethyl]-6-(1H-pyrrolo[2,3-b]pyridin-5-yl)-1,3-dihydro-2H-imidazo[4,5-b]pyridin-2-one] | < 0.05 µM | < 3 µM
